In US20080112927A1, “Cells and methods utilizing same for modifying the electrophysiological function of excitable tissues” (GeneGrafts Ltd., priority 2006, published 2008):

What was measured:
[1] = system: Kv1.3 channel of grafted fibroblasts in right ventricle; test: ERP after local Margatoxin in pigs grafted with Kv1.3 fibroblasts; assay type: in vivo, pig
Procedure: Swine model—Three domestic pigs (20-30) kg were studied. Anesthesia was induced with 5-10 ml of intravenous sodium pentothal 2.5% solution and maintained with inhaled isoflurane (2%) in oxygen. Following a right thoracotomy, each heart was exposed and a total of 6×10^6 cells were transplanted at a total of 7 different locations in the anterior free wall of the right ventricle. Cells were delivered using a 25 g needle using an injection volume of 250 μl. The sites of cell transplantation were marked with a suture. To prevent graft rejection, the animals were treated with an immunosuppressive regimen (cyclosporine, 10 mg/kg/d and methylprednisolone, 3 mg/kg/d). 7 days following cell transplantation, a second thoracotomy and a detailed epicardial electrophysiological study were performed.
The ERP in the pigs was measured in a similar manner to that in the rats but using slower basic stimulation intervals (CLs of 350, 400 and 500 ms). The ERP was measured at the site of cell transplantation as well as in remote sites and also following local intramyocardial injection of Margatoxin at the examined sites.

[2] = system: Kv 1.3 channel of grafted fibroblasts in left ventricular myocardium; test: ERP after Margatoxin in rats grafted with Kv1.3 fibroblasts; assay type: in vivo, rat; settings: 9 μg/kg intraperitoneal bolus; for local ventricular ERP at the site of cell transplantation after MTx, group mean: 154±13 ms before blocker (FIG. 19b)
Procedure: (§1) Rat model—Male Sprague-Dawley rats weighing 200-250 gr were anesthetized using A Xylasine (0.5 mg/kg) and Ketamine (0.5 mg/kg) preparation [see Example 7]. The animals were then intubated and ventilated using a Harvard small-animal mechanical respirator. The chest wall was opened using a left thoracotomy and the heart was exposed. After removal of the pericardium, a total of 6×10^6 cells (either fibroblasts without transfections in the control group or fibroblast overexpressing the KV1.3 channel in the study group) were transplanted into the anterior aspect of the left ventricular wall using a 28 g needle. In order to prevent graft rejection, all animals were treated with a daily dose of cyclosporin (10 mg/kg) and methyprednisolone (2 mg/kg). The animals underwent a detailed electrophysiological study (see below) immediately before cell grafting and 7 days post-transplantation.
(§2) In vivo electrophysiological studies—The electrophysiological study in rats included a standard ventricular pacing protocol to determine the local myocardial effective refractory period (ERP). The ERP was evaluated by applying a train of 20 stimuli at a fixed cycle-length of 200 ms (S1), followed by a single premature stimulus (S2). The S1-S2 coupling interval was gradually shortened. The ERP was determined as the shortest S1-S2 coupling interval still capable of eliciting a ventricular response. Stimuli were generated using a computer controlled STG 1004 stimulus generator with the matching MC-Stim software (both from Multi Channel Systems, Reutlingen, Germany).
The ERP was measured at the site of cell transplantation and at remote sites, both prior to cell transplantation and seven days following cell grafting. In order to dissect the role of the overexpressed channel in altering the local myocardial electrophysiological properties, the ERP was measured also at each site following application of 9 μg/kg of Margatoxin (Alomone Labs, Jerusalem, Israel), a specific Kv 1.3 channel blocker as an intraperitoneal bolus.

[3] = system: left ventricular myocardium grafted with naive fibroblasts; test: ERP after Margatoxin in rats grafted with naive fibroblasts (control group); assay type: in vivo, rat; settings: animals grafted with naive fibroblasts, 88±4 ms before blocker
Procedure: as §1, with “The animals underwent a detailed electrophysiological study (see below) immediately before cell grafting and 7 days post-transplantation.” left out
as §2, with “The S1-S2 coupling interval was gradually shortened.” left out, “Stimuli were generated using a computer controlled STG 1004 stimulus generator with the matching MC-Stim software (both from Multi Channel Systems, Reutlingen, Germany).” left out
The ERP was measured at the site of cell transplantation and at remote sites, both prior to cell transplantation and seven days following cell grafting. […]

[4] = system: cardiomyocyte cultures seeded with Kv1.3 expressing fibroblasts; test: CTx on spontaneous beating rate of study co-cultures (Kv1.3 expressing fibroblasts) (Example 8); assay type: cell-based, rat; settings: CTx 100 nM, study group (FIG. 18b)
Procedure: (§3) Expression system and electrophysiological recordings—NIH 3T3 fibroblast cells (ATCC: CRL 1658) were stably transfected to express the voltage gated potassium channel Kv1.3 as previously described [Feld Y. et al. Circulation. (2002); 105:522-529]. Briefly, stable transfection of pRC/CMV/Kv1.3 in fibroblasts was achieved using electroporation with a single pulse of 200 V, 960° F. followed by antibiotic selection of NeoR clones with 400 μg/mL of G-418 (GIBCO, Langley, Okla., USA). Colonies were picked and tested for channel expression using whole-cell patch clamp recordings. The recordings were conducted at room temperature using Axopatch 200 (Axon Instruments). Kv1.3 expressing fibroblast were generated as previously described [Feld Y. et al. Circulation. (2002); 105:522-9]. […]
(§4) Once a well synchronous spontaneous activity was established in the cardiomyocyte cultures, fibroblasts (naïve, or Kv1.3 expressing fibroblasts) were seeded in a diffuse manner into the cardiomyocytic cultures. Two groups were studied: The cultures were studied daily, and the electrophysiological properties, essentially the spontaneous beating rate of the culture, was assessed at baseline and following application of the specific Kv1.3 blocker, Charybdotoxin (CTx), at increasing dosages (1, 10, 100 nM). […]

[5] = system: cardiomyocyte cultures seeded with naive fibroblasts; test: CTx on spontaneous beating rate of control co-cultures (naive fibroblasts) (Example 8); assay type: cell-based, rat; settings: CTx application, control group
Procedure: as §3, §4

[6] = system: cardiomyocyte cultures or cardiomyocytes co-cultured with untransfected fibroblasts; test: CTX on MEA-recorded activity of control cultures (Example 5); assay type: cell-based, rat; settings: for increase of spontaneous activity rate: control cultures
Procedure: (§5) Monolayer cultures of neonatal rat ventricular cardiomyocytes (NRVM) were prepared as previously described (Rubin et al, 1995), with some modifications. The cultures were maintained in a humidified incubator under a controlled environment of 5% CO2+95% air at 37° C.; fresh medium was replaced on alternating days.
(§6) Fibroblasts from the NIH 3T3 cell line were transfected with an expression cassette which included a mutant voltage gated potassium channel (Kv1.3) coding sequence (GeneBank Accession number H18261) placed under the transcription control of a constitutive promoter using standard procedures. Fibroblast cultures not transfected with the channel coding sequence were produced from the NIH 3T3 cell-line.
Once well synchronous spontaneous activity was established in the cardiomyocyte cultures, fibroblasts transfected with the Kv1.3 channel coding sequence or non-transfected fibroblasts were added to the cultures. Two different methods where used to seed the fibroblasts. In the first method, the fibroblast were suspended in trypsin for 5 minutes following which they were seeded in a diffuse pattern in the cardiomyocytic cultures (FIG. 4a). […]
Extracellular recordings from cultured cardiomyocytes were performed on a PC-based Microelectrode Data Acquisition System (Multi Channel Systems, Reutlingen, Germany), consisting of Multi-Electrode Array (MEA), pre- and filter-amplifiers, data acquisition board, and software. […] Data were recorded at 10-25 KHz with 12-bit precision. […]
Recorded data was filtered using cutoff frequency of 2 KHz (Fast et al, 1993). […] Conduction velocity was calculated by standard methods (Bayly et al, 1988).
(§7) Conduction block quantification is central to evaluating conduction block development in the cell cultures, and to evaluating reversibility of the conduction block following CTX application. A conduction block was determined using the following algorithm: […]
(§8) Electrical activity of the cultures was recorded on day one immediately prior to seeding of the fibroblasts and then daily until the cultures died or no spontaneous activity was detected. […]

[7] = system: cardiomyocytes co-cultured with fibroblasts (NIH 3T3) transfected with voltage gated potassium channel Kv1.3; test: CTX on MEA-recorded activity of cardiomyocytes co-cultured with Kv1.3 transfected fibroblasts (Example 5); assay type: cell-based, rat; settings: for increase of spontaneous activity rate: co-cultures with transfected fibroblasts
Procedure: as §5, §6
Once well synchronous spontaneous activity was established in the cardiomyocyte cultures, fibroblasts transfected with the Kv1.3 channel coding sequence or non-transfected fibroblasts were added to the cultures. Two different methods where used to seed the fibroblasts. In the first method, the fibroblast were suspended in trypsin for 5 minutes following which they were seeded in a diffuse pattern in the cardiomyocytic cultures (FIG. 4a). In the second method, the fibroblasts where pipetted up and down through a 5 ml pipette for 2 minutes and seeded in the cardiomyocytic cultures thus were forming clusters of fibroblasts (FIG. 4b).
Extracellular recordings from cultured cardiomyocytes were performed on a PC-based Microelectrode Data Acquisition System (Multi Channel Systems, Reutlingen, Germany), consisting of Multi-Electrode Array (MEA), pre- and filter-amplifiers, data acquisition board, and software. The MEA consists of a 50×50 mm glass substrate, in the center of which is an embedded 0.7×0.7 or 1.4×1.4 mm matrix of 60 Titanium-nitride, gold contacts 10 or 30 μm diameter electrodes insulated with silicone nitride, with inter-electrode distance of 100 or 200 μm (there are no electrodes in the corners of the matrix). Data were recorded at 10-25 KHz with 12-bit precision. During the recording sessions, the MEA (removed from the regular incubator) was constantly perfused with a gas mixture consisting of 5% CO2+95% air. Temperature was kept at 37±0.10° C.
Recorded data was filtered using cutoff frequency of 2 KHz (Fast et al, 1993). The filtered signal was then differentiated digitally to determine the Local Activation Time (LAT) at each electrode, corresponding to dF/dtmin (where F is the filtered signal) (Dolber and Spach, 1986). Color-coded activation maps were constructed by interpolating the LAT values for the sites between the electrodes, and by extrapolating the LAT values for the 4 corners of the MEA matrix. Activation maps were plotted by means of Matlab standard 2-d plotting function (pcolor) (Matlab 5.3 Mathworks Incorporated©). Conduction velocity was calculated by standard methods (Bayly et al, 1988).
as §7, §8

[8] = target: mutant voltage gated potassium channel Kv1.3 (GenBank Accession number H18261) expressed in NIH 3T3 fibroblasts; test: cell-based or functional assay
[9] = system: cultured neuronal network (cortical neurons); test: Spiking activity of cultured cortical neuronal network on multi electrode array (MEA); assay type: cell-based, rat
Procedure: Cortical neurons were obtained from newborn rats within 24 hours from birth, following standard harvesting procedures (Culturing nerve cells, 2nd edition, Gary Ranker and Kimberly Goslin, 1998). The cortex tissue was digested enzymatically and mechanically dissociated and the neurons were plated directly onto substrate-integrated multi-electrode array (MEA) dishes prepared as described below. The cultures were bathed in MEM which was supplemented with heat-inactivated horse serum (5%), Glutamine (0.5 mM), Glucose (20 mM), and Gentamycin (10 μg/ml), and maintained in a tissue culture incubator at 37° C., 5% CO2 and 95% during the recording phases. Half of the medium was exchanged twice a week and the experiments were performed during the third week following plating, thus allowing complete maturation of the neurons (FIGS. 1a-b).
Arrays of 60 Ti/Au/TiN electrodes, 30 μm in diameter, spaced 200 μm from each other (MultiChannelSystems (MCS), Reutlingen, Germany) were utilized in the present study. The insulation layer (silicon nitride), was pretreated with poly-L-lysine forming a good surface for network development. A commercial 60-channel amplifier (B-MEA-1060, MCS, Reutlingen, Germany) with frequency limit range of 10-3000 Hz and a gain of ×1024 was utilized for signal amplification. The amplifier was connected to MCPPlus filter amplifiers (Alpha Omega, Nazareth, Israel) for further amplification (×10 to ×20). Stimulation through the MEA was performed using a dedicated 8-channel stimulus generator (MCS, Reutlingen, Germany).
In addition, the micro-incubation environment was arranged to support long-term recordings from MEA dishes. This was achieved by streaming a filtered, heated and humidified air/CO2 (95/5%) gas mixture, and by electrically heating the MEA platform to 37° C. Data is digitized using two 5200a/526 A/D boards (Microstar Laboratories, Wash., USA).
Following electrical functionality determination, the neuronal network cultures were incubated with various electrical conduction blockers.

Compound: Margatoxin (TIINVKCTSPKQCLPPCKAQFGQSAGAKCMNGKCKCYPH)
- local ERP after local application of MTx ([1]; pig, basic CL 400 ms, 310 ms before blocker (FIG. 20a)): 220 ms
- ventricular ERP after local application of MTx ([1]; pigs, all three CLs (FIG. 20b)): not different from the control sites
- local ventricular ERP at the site of cell transplantation after MTx, group mean [2]: 117 ± 7.70 ms
- local ventricular ERP at the site of cell transplantation after MTx, group mean ([2]; listed as MTx): 117 ± 8 ms
- ventricular ERP at the site of cell grafting after Margatoxin, one of the animals ([2]; 170 ms before blocker (FIG. 19a)): 100 ms
- local ERP after administration of Mtx, control group [3]: did not change significantly

Compound: Charybdotoxin (QFTNVSCTTSKECWSVCQRLHNTSRGKCMNKKCRCYS) [CTX]
- reversibility of the negative chronotropic effect induced by the transfected fibroblast [4]: full reversibility
- beating frequency [5]: did not significantly alter
- increase of spontaneous activity rate ([6]; CTX 10 nM): did not increase
- increase of spontaneous activity rate ([6]; CTX 100 nM): up to 15%
- conduction block factor ([6]; application of Charybdotoxin, co-cultures with non-transfected fibroblasts, n=9 (FIG. 11)): minimal response
- increase of spontaneous activity rate ([7]; CTX 10 nM): 20%
- increase of spontaneous activity rate ([7]; CTX 100 nM): 55%
- conduction block factor ([7]; application of Charybdotoxin, co-cultures with Kv1.3 transfected fibroblasts, n=10 (FIG. 11)): substantially decreased
- conduction blocks ([7]; following treatment with CTX (10 nM, FIG. 7d; FIG. 11)): reversed
- uncoupling effect after fibroblast seeding ([7]; following treatment with CTX (100 nM, FIGS. 6f-g)): reversed

Compound: Margatoxin (from UniProt P40755 1-39) (peptide)
- local ventricular effective refractory period (ERP) at the graft site in one rat after Margatoxin (170 ms before) [8]: 100 ms

Compound: N[C@H](CCCP(=O)(O)O)C(=O)O [APV, D-2-amino-5-phosphonovalerate]
- spiking activity ([9]; 20 μM added to the cultured neuronal network): completely abolished

Compound: CN1CCc2cc3c(cc2[C@H]1[C@@H]1OC(=O)c2c1ccc1c2OCO1)OCO3 [bicuculin]
- spiking activity ([9]; 5 μM added to the cultured neuronal network): completely abolished

Compound: O=[N+]([O-])c1cc2nc(O)c(O)nc2cc1[N+](=O)[O-] [DNQX]
- spiking activity ([9]; 10 μM added to the cultured neuronal network): completely abolished
